Reference: US12234271B2 (Synthorx, Inc., priority 2019, dated 2025)

Legend:
[1] = cited from earlier work
[2] = test system: white blood cell count (WBC), lymphocyte count; test: Hematology after single subcutaneous dose in Cynomolgus monkeys; format: in vivo, Cynomolgus monkey
Text: Each of the conjugates described below, except H16_30 kDa and H16_50 kDa, had SEQ ID NO: 4 in which the indicated amino acid position is substituted with the structure of Formula (II), Formula (III), or a mixture of Formula (II) and (III), and they contain a PEG chain of the indicated size. For example, the variant labeled “L19_30 kDa” has SEQ ID NO: 4 in which the amino acid at position L19 is replaced by the structure of Formula (II), Formula (III), or a mixture of Formula (II) and (III), and contains a 30 kDa, linear mPEG group. For the H16_30 kDa and H16_50 kDa variants, the compounds had SEQ ID NO: 4 in which the indicated amino acid position is substituted with the structure of Formula (IV), Formula (V), or a mixture of Formula (IV) and […] a linear, mPEG group having a molecular weight of 30 kDa or 50 kDa, respectively.
Blood samples were taken from each animal at the following time points: Samples for hematology: Day −1, Day 1 (Predose), 3, 6, 10, 15 and 22. Samples for pharmacokinetics and pharmacodynamics: (Predose), 0.5, 1, 2, 4, 8, 24, 36, 48, 72, 96, 120, 144, 168, and 240, 360, 528 (Day 22) hours post-dose. Cytokine sample collection and analysis: Day −1, and Day 1 (Predose), 8, 24, 72, 120 and 168, 360, and 528 (Day 22) hours post-dose.

CTLL-2 = CTLL-2 proliferation; format: cell-based; conditions: mouse CTLL-2
Text: FIG. 4A-FIG. 4B show the dose response curves for pSTAT5 signaling in human LRS primary cell (FIG. 4A) and proliferation response in mouse CTLL-2 populations (FIG. 4B).

CD8+ Tcells = test: pSTAT5 signaling in human LRS-derived PBMC samples, CD8+ T cells (flow cytometry); format: cell-based; conditions: from MFI plots
Protocol: (§1) Conjugates of Table 3 were synthesized by modification of SEQ ID NO. 1.
(§2) These studies were performed at PrimityBio LLC (Fremont, CA).

NK cells = test: pSTAT5 signaling in human LRS-derived PBMC samples, NK cells (flow cytometry); format: cell-based; conditions: from MFI plots
Protocol: as §1, §2

Treg cells = test: pSTAT5 signaling in human LRS-derived PBMC samples, Treg cells (flow cytometry); format: cell-based; conditions: for Fold increase in Treg EC50 vs native IL-2: compared to native IL-2 run in each individual experiment; for Treg cells, dose response EC50 for pSTAT5 signaling: human LRS samples, from MFI plots; for CD8+/Treg ratio: ratio of pSTAT5 EC50, human LRS samples
Protocol: as §1, §2

IL-2 receptor beta gamma = target: T1, IL-2 receptor beta gamma (Homo sapiens, UniProt P14784+P31785); test: PathHunter IL-2 Cytokine Receptor agonist assay, beta gamma; format: cell-based; conditions: U2OS PathHunter cells IL-2Rbeta/gamma; mass of IL-2 polypeptide only, without mPEG or linker
T1 construct: host or cells: U2OS (PathHunter)
T1 sequence (P14784 27-551): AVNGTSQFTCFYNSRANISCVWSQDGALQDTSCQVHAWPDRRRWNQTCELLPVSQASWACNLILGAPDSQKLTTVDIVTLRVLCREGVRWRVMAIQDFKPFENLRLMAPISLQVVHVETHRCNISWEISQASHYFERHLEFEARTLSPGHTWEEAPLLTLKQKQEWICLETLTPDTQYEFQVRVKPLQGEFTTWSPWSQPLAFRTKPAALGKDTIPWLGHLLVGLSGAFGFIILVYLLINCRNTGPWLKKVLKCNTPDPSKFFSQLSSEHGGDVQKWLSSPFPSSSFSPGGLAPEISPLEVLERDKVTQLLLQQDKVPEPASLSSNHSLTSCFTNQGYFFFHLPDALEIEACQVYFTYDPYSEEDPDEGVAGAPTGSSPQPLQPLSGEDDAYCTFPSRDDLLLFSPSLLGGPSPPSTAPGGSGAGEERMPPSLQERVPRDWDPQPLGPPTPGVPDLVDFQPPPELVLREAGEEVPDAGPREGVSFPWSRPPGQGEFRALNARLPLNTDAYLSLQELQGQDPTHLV
T1 sequence (P31785 23-369): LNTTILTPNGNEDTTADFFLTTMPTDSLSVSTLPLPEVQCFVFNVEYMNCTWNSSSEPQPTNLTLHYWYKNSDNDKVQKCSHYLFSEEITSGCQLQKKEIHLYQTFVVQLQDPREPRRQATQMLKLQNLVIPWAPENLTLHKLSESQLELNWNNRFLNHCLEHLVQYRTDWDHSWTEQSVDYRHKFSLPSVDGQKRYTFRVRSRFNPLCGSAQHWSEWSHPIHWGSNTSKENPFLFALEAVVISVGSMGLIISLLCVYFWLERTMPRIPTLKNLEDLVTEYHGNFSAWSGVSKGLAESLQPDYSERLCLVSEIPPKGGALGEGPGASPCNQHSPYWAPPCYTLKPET
Protocol: (§3) For example, the compounds labelled “D20_30” in this example is the compound having SEQ ID NO: 4 in which the structure of Formula (II), Formula (III), or a mixture of Formula (II) and (III) was substituted at the D20 residue (SEQ ID NO: 67) with a PEG group having a molecular weight of 30 kDa. Similarly, the following compounds were tested in this Example:
(§4) A second cell line was engineered to express the IL-2Ralpha subunit.
(§5) PathHunter cell lines were expanded from freezer stocks according to standard procedures. Cells were seeded in a total volume of 20 μL into white walled, 384-well microplates and incubated for the appropriate time prior to testing. […] Intermediate dilution of sample stocks was performed to generate 5× sample in assay buffer. About 5 μL of 5× sample was added to cells and incubated at 37° C. for a period of from 6 hours to 16 hours depending on the assay. Vehicle concentration was 1%. […] For some assays, activity was detected using a high sensitivity detection reagent (PathHunter Flash Kit) to improve assay performance. […] Microplates were read following signal generation with a PerkinElmer Envision instrument for chemiluminescent signal detection.
(§6) Compound activity was analyzed using CBIS data analysis suite software (ChemInnovation, CA).

[3] = target: T2, IL-2 receptor alpha beta gamma (Homo sapiens, UniProt P01589+P14784+P31785); test: PathHunter IL-2 Cytokine Receptor agonist assay, alpha beta gamma; format: cell-based; conditions: U2OS PathHunter cells with IL-2Ralpha; mass of IL-2 polypeptide only, without mPEG or linker
T2 construct: host or cells: U2OS (PathHunter)
T2 sequence (P01589 22-272): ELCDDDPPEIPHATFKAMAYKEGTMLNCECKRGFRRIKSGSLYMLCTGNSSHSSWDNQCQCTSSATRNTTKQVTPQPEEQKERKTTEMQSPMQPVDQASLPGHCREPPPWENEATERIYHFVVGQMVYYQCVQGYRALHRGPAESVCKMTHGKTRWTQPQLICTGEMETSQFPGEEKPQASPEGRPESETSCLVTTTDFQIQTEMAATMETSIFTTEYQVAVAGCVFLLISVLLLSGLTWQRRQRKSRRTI
T2 sequence (P14784 27-551): T1 sequence (P14784 27-551)
T2 sequence (P31785 23-369): T1 sequence (P31785 23-369)
Protocol: as §3, §4, §5, §6

| Substance | CTLL-2 proliferation EC50 (CTLL-2) | CD8+ Tcells, dose response EC50 for pSTAT5 signaling (CD8+ Tcells) | NK cells, dose response EC50 for pSTAT5 signaling (NK cells) | Fold increase in Treg EC50 vs native IL-2 (Treg cells) | Treg cells, dose response EC50 for pSTAT5 signaling (Treg cells) | CD8+/Treg ratio (Treg cells) | further results |
| --- | --- | --- | --- | --- | --- | --- | --- |
| human transferrin: 679 amino acid polypeptide that is about 80 kDa in size | – | – | – | – | – | – | half-life [1]: 170 to 288 h |
| N88_30kDa: SEQ ID NO: 4 with Formula (II), (III) or mixture at N88 (SEQ ID NO: 70), linear mPEG 30 kDa | – | – | – | – | – | – | Date at the peak of lymphocytes ([2]; 0.37 mg/kg single subcutaneous dose): 6 days post |
| N88R: IL-2 variant of Table 3 labelled N88R, no PEG size given [reference compound] | 0.363 ng/mL | 15025734 pg/ml | 2312847 pg/ml | 148 | 11082 pg/ml | 1356 | – |
| H16_30kDa: SEQ ID NO: 4 with Formula (II), (III) or mixture at H16 (SEQ ID NO: 65), linear mPEG 30 kDa | – | – | – | – | – | – | Beta gamma EC50 (IL-2 receptor beta gamma): 5742 ng/mL; Alpha beta gamma EC50 [3]: 3.3 ng/mL |
| V91K: IL-2 variant of Table 3 labelled V91K, no PEG size given [reference compound] | 0.0995 ng/mL | 102255 pg/ml | 20537 pg/ml | 3 | 142 pg/ml | 720 | – |
| L19_30kDa: SEQ ID NO: 4 with Formula (II), (III) or mixture at L19 (SEQ ID NO: 66), 30 kDa linear mPEG | – | – | – | – | – | – | Date at the peak of lymphocytes ([2]; 0.03 mg/kg single subcutaneous dose): 6 days post; Date at the peak of lymphocytes ([2]; 0.16 mg/kg single subcutaneous dose): 6 days post |
